A short description of data set [1]: Pharmacokinetics test in rats (oral administration). The data set is classed as in vivo, LEW/CrlCrlj rats. Particulars: mean n = 4; for AUCinf / AUCt / Cmax / Kel / MRT / T1/2 / Tmax: oral 2 mg/mL solution at 5 mL/kg; for Concentration (ng/mL), sampling time 0.5 h / Concentration (ng/mL), sampling time 1 h / Concentration (ng/mL), sampling time 3 h / Concentration (ng/mL), sampling time 6 h: plasma; for Concentration (ng/mL), sampling time 0.5 h: 0.5 h after oral 2 mg/mL solution at 5 mL/kg; for Concentration (ng/mL), sampling time 1 h: 1 h after oral 2 mg/mL solution at 5 mL/kg; for Concentration (ng/mL), sampling time 3 h: 3 h after oral 2 mg/mL solution at 5 mL/kg; for Concentration (ng/mL), sampling time 6 h: 6 h after oral 2 mg/mL solution at 5 mL/kg. Here is the method: In order to evaluate the transition of plasma concentration of the present compound after oral administration, pharmacokinetics was evaluated in rats. The specific method is described below.
Appropriate amounts of Example 71 and various salts thereof were weighed, triturated with an agate mortar, and suspended or dissolved in 1% methyl cellulose solution to 2 mg/mL (as a converted quantity of Example 71 considering the correction of purify).
LEW/CrlCrlj rats (male, purchased form Charles River Laboratories Japan, Inc.) were weighted, a random number based on the measured body weight was used to avoid difference in average body weight among groups, and the rats were divided into groups, wherein each groups contained 4 rats. The rats were manually held in hands and forced orally administered each administration solution comprising the compound at a dose of 5 mL/kg into stomach using a feeding needle. At 0.5, 1, 3, 6 and 24 hours after the administration of each administration solution comprising the compound, the rats were manually held in hands, and blood was collected from the jugular vein or subclavian vein using a heparin-treated injection syringe. The obtained blood was centrifuged at 1,500 G for 10 minutes, and plasma was collected as an actual sample. In addition, plasma was collected from rats before the administration of the compound in the same manner, which was used as blank plasma. The collected actual samples and blank plasma were stored in a freezer set at −70° C. until the measurement of the compound concentration. To 20 μL of each actual sample were added 20 μL of acetonitrile (available from Kishida Chemical Co., Ltd., Cat No. 140-00401), 100 μL of MilliQ water and 20 μL of the internal standard solution to prepare an analytical sample. In addition, to 20 μL of blank plasma were added 20 μL or 40 μL of acetonitrile (available from Kishida Chemical Co., Ltd., Cat No. 140-00401) and 100 μL of MilliQ water (a blank sample or a zero sample, respectively). A standard sample for a calibration curve was prepared by mixing 20 μL of blank plasma, 20 μL of the standard solution for a calibration curve in each concentration, 100 μL of MilliQ water and 20 μL of the internal standard solution. Whole amount of the prepared each sample was applied to a diatomaceous earth column for liquid-liquid extraction (available from Biotage, Cat No. 820-0200), tert-butyl methyl ether (available from Kanto Chemical Co., Inc., Cat No. 04418-5B) was added and eluted by natural dropping, and the obtained eluate was concentrated to dryness under a nitrogen stream. The residue was dissolved in the re-dissolved solution and 10 μL of each sample was injected into the LC/MS/MS apparatus.
LC/MS/MS analysis was carried out under the following conditions. Analytical column: Hydrosphere C18, 3 μm, 2.0 mm I.D.×50 mm (from YMC, Cat No. HS12S03-0502WT)
Flow rate: 0.3 mL/min. Column temperature: 50° C. Peak area calculation, peak area ratio calculation, preparation of calibration and quantification used in calculating the concentration for the LC/MS/MS analysis were carried out by Analyst ver.1.6.2 (available from AB Sciex). In addition, by using the obtained concentration measurement results, these were analyzed by Non-compartmental model of a pharmacokinetics analysis program WinNonlin ver.6.1 (Pharsight Corporation), and the pharmacokinetics parameter was calculated.

A further data set relates to IL-6 production. As to the kind of experiment: LPS-induced IL-6 production model test. It counts as in vivo, C57BL/6J mice. Particulars: 10 mg/kg oral, 30 min before LPS 1 mg/kg i.p., serum IL-6 60 min after LPS, mice. Here is the method:
In order to evaluate the inhibitory activity of inflammatory cytokine production in the present compounds, LPS-induced IL-6 production model evaluation was carried out. The specific method is described below.
An appropriate amount of each compound was weighed, triturated with an agate mortar, and suspended or dissolved in 1% methyl cellulose solution to prepare 1 mg/mL solution.
C57BL/6J mice (male, Purchaser: Charles River Laboratories Japan, Inc.) were weighted, before divided into normal group, control group and each compound-administered group based on the measured body weight using a random number, wherein each group contained 6 samples. The mice were manually held in hands and forced orally administered the 1% methyl cellulose solution (normal and control group) or each administration solution comprising the compound (each compound-administered group) at a dose of 10 mL/kg into stomach using a feeding needle. After 30 minutes from administration of the 1% methyl cellulose solution or each compound administration solution, the mice were manually held in hands and intraperitoneally administered physiological saline (normal group) or LPS solution (control and each compound-administered group) at a dose of 1 mg/kg. After 60 minutes from administration of the LPS solution, whole blood was collected from the abdominal vena cava of each mouse under isoflurane inhalation anesthesia (available from Mylan Seiyaku Ltd.), and the mice were euthanized. The collected blood was allowed to stand at room temperature for one hour, and then centrifuged at 1,500 G for 10 minutes to collect a serum (supernatant). The collected serum was stored in a deep freezer set at −80° C. until the measurement of IL-6 in the serum. The IL-6 concentration in the serum of each mouse was measured by a commercially available kit (available from R&D systems, Cat No. M6000B), according to the protocol attached thereto.
The IL-6 production inhibition rate (%) was calculated by the following equation using Microsoft EXCEL 2010. IL-6 production inhibition rate (%)=100−{(average value of IL-6 concentration in serum of each compound-administered group)−(average value of IL-6 concentration in serum of normal group))/(average value of IL-6 concentration in serum of control group)−(average value of IL-6 concentration in serum of normal group)}×100

This note sets out measurements from patent publication US11186588B2 (AYUMI PHARMACEUTICAL CORPORATION, priority 2017, dated 2021).

The term Cmax denotes the maximum level reached in the sampled fluid or tissue. Usually MRT stands for a mean duration of stay, worked out from the concentration-time curve. Usually Tmax stands for the time at which the peak concentration occurs. For the molecule `CC(=O)Nc1ccc(C2=NN(Cc3cccnc3)c3nnc(C)n3-c3sc(C)c(C)c32)cc1.CC(=O)Nc1ccc(C2=NN(Cc3cccnc3)c3nnc(C)n3-c3sc(C)c(C)c32)cc1.O=C(O)/C=C/C(=O)O` [0.5 Fumarate of Example 71], in data set [1], the AUCinf turned out to be 54.47 ng·h/mL, the AUCt amounted to 31.38 ng·h/mL, the Cmax was 15.70 ng/mL and the Kel turned out to be 0.35 h⁻¹. Further, in data set [1], the mean residence time MRT is recorded as 1.63 h; the T1/2 was found to be 3.02 h; the Tmax is on record as 0.50 h; the “Concentration (ng/mL), sampling time 0.5 h” value is given as 15.70 ng/mL. For the same molecule, in data set [1], the “Concentration (ng/mL), sampling time 1 h” value is given as 11.3 ng/mL; the “Concentration (ng/mL), sampling time 3 h” value came out at 4.28 ng/mL; the “Concentration (ng/mL), sampling time 6 h” value amounted to 2.29 ng/mL. Also, the “LPS-induced IL-6 production (% Inhibition @ 10 mg/kg)” value with IL-6 production is reported as 83.0%.
In the case of `CC(=O)Nc1ccc(C2=NN(Cc3cccnc3)c3nnc(C)n3-c3sc(C)c(C)c32)cc1.CC(=O)Nc1ccc(C2=NN(Cc3cccnc3)c3nnc(C)n3-c3sc(C)c(C)c32)cc1.O=C(O)CCC(=O)O` [0.5 Succinate of Example 71], in data set [1], the AUCinf is 106.41 ng·h/mL, the AUCt came to 104.34 ng·h/mL, the peak concentration (Cmax) is on record as 79.8 ng/mL and the Kel is 0.64 h⁻¹. For the same molecule, in data set [1], the mean residence time (MRT) came out at 1.30 h; the T1/2 is 1.10 h; the Tmax was determined as 0.50 h; the “Concentration (ng/mL), sampling time 0.5 h” value was 79.8 ng/mL. Further, in data set [1], the “Concentration (ng/mL), sampling time 1 h” value came to 36.2 ng/mL; the “Concentration (ng/mL), sampling time 3 h” value is 6.88 ng/mL; the “Concentration (ng/mL), sampling time 6 h” value was determined as 1.3 ng/mL. Also, the “LPS-induced IL-6 production (% Inhibition @ 10 mg/kg)” value in the data set on IL-6 production stood at 83.0%.
For the molecule `CC(=O)Nc1ccc(C2=NN(Cc3cccnc3)c3nnc(C)n3-c3sc(C)c(C)c32)cc1.Cl` [1 Hydrochloride of Example 71], in data set [1], the AUCinf was 105.65 ng·h/mL, the AUCt was determined as 114.07 ng·h/mL, the maximum concentration (Cmax) stood at 111.0 ng/mL and the Kel was 0.57 h⁻¹. Further, in data set [1], the MRT worked out at 1.12 h; the T1/2 came to 1.24 h; the Tmax turned out to be 0.50 h; the “Concentration (ng/mL), sampling time 0.5 h” value came to 111.0 ng/mL. Further, in data set [1], the “Concentration (ng/mL), sampling time 1 h” value was found to be 34.0 ng/mL; the “Concentration (ng/mL), sampling time 3 h” value was 6.75 ng/mL; the “Concentration (ng/mL), sampling time 6 h” value is recorded as 1.5 ng/mL. In the data set with IL-6 production, the “LPS-induced IL-6 production (% Inhibition @ 10 mg/kg)” value was 82.7%.
For `CC(=O)Nc1ccc(C2=NN(Cc3cccnc3)c3nnc(C)n3-c3sc(C)c(C)c32)cc1.O=C(O)/C=C\C(=O)O` [1 Maleate of Example 71], in data set [1], the AUCinf was determined as 118.01 ng·h/mL, the AUCt was 115.41 ng·h/mL, the peak concentration (Cmax) was 80.1 ng/mL and the Kel was found to be 0.64 h⁻¹. Besides, in data set [1], the mean residence time MRT is given as 1.27 h; the T1/2 was 1.09 h; the time of peak concentration (Tmax) is recorded as 0.50 h; the “Concentration (ng/mL), sampling time 0.5 h” value is 80.1 ng/mL. Moreover, in data set [1], the “Concentration (ng/mL), sampling time 1 h” value is 42.9 ng/mL; the “Concentration (ng/mL), sampling time 3 h” value is given as 7.69 ng/mL; the “Concentration (ng/mL), sampling time 6 h” value is 1.66 ng/mL. Further, the “LPS-induced IL-6 production (% Inhibition @ 10 mg/kg)” value in the data set with IL-6 production is given as 82.0%.
Regarding `CC(=O)Nc1ccc(C2=NN(Cc3cccnc3)c3nnc(C)n3-c3sc(C)c(C)c32)cc1.Cc1ccc(S(=O)(=O)O)cc1` [1 Tosylate of Example 71], in data set [1], the AUCinf was determined as 101.11 ng·h/mL, the AUCt stood at 95.75 ng·h/mL, the peak concentration (Cmax) is given as 62.1 ng/mL and the Kel was determined as 0.52 h⁻¹. In addition, in data set [1], the mean residence time (MRT) is recorded as 1.48 h; the T1/2 came out at 1.42 h; the Tmax was found to be 0.50 h; the “Concentration (ng/mL), sampling time 0.5 h” value was determined as 62.1 ng/mL. For the same molecule, in data set [1], the “Concentration (ng/mL), sampling time 1 h” value came out at 34.7 ng/mL; the “Concentration (ng/mL), sampling time 3 h” value came out at 7.04 ng/mL; the “Concentration (ng/mL), sampling time 6 h” value was found to be 2.46 ng/mL. In the data set on IL-6 production, the “LPS-induced IL-6 production (% Inhibition @ 10 mg/kg)” value is given as 85.0%.
